Test results: BindingDB's records for doi:10.1021/jm00376a004 (1984)

Experiment: Compound was evaluated for average apparent binding constant (Kd ) using Scatchard analysis to dTMP synthetase enzyme from chick embryo

**Q.** With O=c1nc(NO)ccn1[C@H]1C[C@H](O)[C@@H](COP(=O)(O)O)O1 [Phosphoric acid mono-[3-hydroxy-5-(4-hydroxyamino-2-oxo-2H-pyrimidin-1-yl)-tetrahydro-furan-2-ylmethyl] ester] as the compound, how does the Kd read?
**A.** 1000 nM
